# Columns and labels:
# [1] = test system: LPS endotoxin shock model; test: Survival in rodent model of LPS endotoxin shock; type: in vivo, C57BL/6J mice; settings: LPS 5 mg/kg iv; 50 mg/kg 25HC3S ip 2 hours prior to LPS; six days after LPS; N=10
# Protocol: The subjects for the study were 20 male C57BL/6J mice (20-22 weeks of age, 27-35 g).
# A solution formulation of 25HC3S and its respective vehicle was used for the study. The vehicle was a solution of 4% (w/v) hydroxypropyl betadex, 10% (w/v) dextrose, with 10 mM sodium phosphate buffer in sterile water. Vehicle was stored at 2-8° C. storage and placed at room temperature for 30 minutes prior to dosing.
# 25HC3S sodium salt was pre-dissolved into the vehicle solution to result in a drug concentration of 5 mg/mL. The 25HC3S solution was ready-to-use at the start of dosing. It was also stored at 2-8° C. storage and placed at room temperature for 30 minutes prior to dosing the mice.
# 50 mg/kg of 25HC3S in vehicle or vehicle alone (N=10/group) were administered to mice once by intraperitoneal injection 2 hours prior to LPS delivery. A semi-lethal dose of LPS (5 mg/kg) was given by intravenous injection to the tail vein in order to induce an acute inflammatory response that mimics systemic sepsis-like conditions.
# Mice were monitored for survival for 6 days after 25HC3S and LPS treatments. Animal checks for mortality were performed twice daily during the 6 day observation period. Animals were examined for any altered clinical signs, including gross motor and behavioral activity, and observable changes in appearance. […]
# [2] = Stability testing for 25HC3S sodium salt for injection, 30 mg/mL after constitution; type: physicochemical; settings: for Degree of Coloration of Liquids: BY = brown-yellow
# Protocol: Sterile water for injection, USP (6.14 kg) was added into a 10L stainless steel vessel. […] HPbCD, NF (1851.85 g) was added in small portions over 15 minutes with slow stirring into the beaker. The stirring was increased to 250-350 rpm for an additional minimum 30 minutes to form a clear solution. The solution was filtered through a 0.22 micron filter. Filtered vehicle (7 mL) was filled into 10 mL glass vials, which were sealed with 20 mm stoppers, and crimp sealed. The vehicle vials were sterilized with gamma irradiation at approximately 28-32 kGy.
# 25HC3S sodium salt was micronized by passing through a Fluid Energy Model 00 Jet-O-Mizer Jet Mill. Micronized drug substance (186 mg) was added into a 10 mL glass vial, sealed with 20 mm stoppers, and crimp sealed. The 25HC3S powder vials were sterilized with gamma irradiation at approximately 28-32 kGy
# Sterile vehicle (6.0 mL) comprised of 250 mg/mL HPbCD and 10 mM phosphate buffer was added to a vial of 25HC3S micronized powder. The mixture was shaken for 15 minutes to prepare a solution resulting in a 25HC3S sodium salt concentration of 30 mg/mL (allowing for 3% dilution upon the dissolution of drug).
# Stability data for 6 months at 2-8° C. to 40° C./75% RH for 25HC3S for injection, 30 mg/mL after constitution, are listed in Table 5. This lot of 25HC3S powder, and the vehicle used to constitute it, were gamma sterilized at approximately 28-32 kGy. The data supports a 12 month retest date when stored at 2-8° C.
structure (smiles),measurement,setting,value
"C[C@H](CCCC(C)(C)O)[C@H]1CC[C@H]2[C@@H]3CC=C4C[C@@H](OS(=O)(=O)[O-])CC[C@]4(C)[C@H]3CC[C@]12C.[Na+] [25HC3S, 5-cholesten-3, 25-diol, 3-sulfate]",mice that had died,[1],40%
same,% Individual Unspecified Degradant RRT = 0.60,"[2]; 2-8°C, 0 months",0.2%
same,% Individual Unspecified Degradant RRT = 0.64,"[2]; 2-8°C, 0 months",0.4%
same,% Individual Unspecified Degradant RRT = 2.74,"[2]; 2-8°C, 0 months",0.4%
same,% Individual Unspecified Degradant RRT = 3.77,"[2]; 2-8°C, 0 months",0.3%
same,% Total Degradation Products,"[2]; 2-8°C, 0 months",2.5%
same,% Water Content,"[2]; 2-8°C, 0 months",6.23%
same,Appearance,"[2]; 2-8°C, 0 months",White powder
same,Assay (label strength of 30 mg/mL),"[2]; 2-8°C, 0 months",Mean: 98.7%
same,Osmolality,"[2]; 2-8°C, 0 months",321 mmol/kg
same,pH,"[2]; 2-8°C, 0 months",6.62
same,Degree of Coloration of Liquids,"[2]; 2-8°C, 0 months",BY6
same,% Individual Unspecified Degradant RRT = 0.60,"[2]; 2-8°C, 3 months",0.2%
same,% Individual Unspecified Degradant RRT = 0.64,"[2]; 2-8°C, 3 months",0.4%
same,% Individual Unspecified Degradant RRT = 2.74,"[2]; 2-8°C, 3 months",0.4%
same,% Individual Unspecified Degradant RRT = 3.77,"[2]; 2-8°C, 3 months",0.3%
same,% Total Degradation Products,"[2]; 2-8°C, 3 months",2.8%
same,% Water Content,"[2]; 2-8°C, 3 months",5.62%
same,Assay (label strength of 30 mg/mL),"[2]; 2-8°C, 3 months",96.7%
same,Osmolality,"[2]; 2-8°C, 3 months",322 mmol/kg
same,pH,"[2]; 2-8°C, 3 months",5.82
same,% Individual Unspecified Degradant RRT = 0.60,"[2]; 2-8°C, 6 months",0.3%
same,% Individual Unspecified Degradant RRT = 0.64,"[2]; 2-8°C, 6 months",0.4%
same,% Individual Unspecified Degradant RRT = 2.74,"[2]; 2-8°C, 6 months",0.4%
same,% Individual Unspecified Degradant RRT = 3.77,"[2]; 2-8°C, 6 months",0.3%
same,% Total Degradation Products,"[2]; 2-8°C, 6 months",3.0%
same,% Water Content,"[2]; 2-8°C, 6 months",6.13%
same,Assay (label strength of 30 mg/mL),"[2]; 2-8°C, 6 months",100.0%
same,Osmolality,"[2]; 2-8°C, 6 months",323 mmol/kg
same,pH,"[2]; 2-8°C, 6 months",5.34
same,Degree of Coloration of Liquids,"[2]; 2-8°C, 6 months",BY6
same,% Individual Unspecified Degradant RRT = 0.60,"[2]; 25°C/60% RH, 1 month",0.3%
same,% Individual Unspecified Degradant RRT = 0.64,"[2]; 25°C/60% RH, 1 month",0.4%
same,% Individual Unspecified Degradant RRT = 2.74,"[2]; 25°C/60% RH, 1 month",0.4%
same,% Individual Unspecified Degradant RRT = 3.77,"[2]; 25°C/60% RH, 1 month",0.3%
same,% Total Degradation Products,"[2]; 25°C/60% RH, 1 month",2.9%
same,% Water Content,"[2]; 25°C/60% RH, 1 month",5.29%
same,Assay (label strength of 30 mg/mL),"[2]; 25°C/60% RH, 1 month",98.3%
same,Osmolality,"[2]; 25°C/60% RH, 1 month",330 mmol/kg
same,pH,"[2]; 25°C/60% RH, 1 month",5.18
same,% Individual Unspecified Degradant RRT = 0.60,"[2]; 25°C/60% RH, 3 months",0.3%
same,% Individual Unspecified Degradant RRT = 0.64,"[2]; 25°C/60% RH, 3 months",0.4%
same,% Individual Unspecified Degradant RRT = 2.74,"[2]; 25°C/60% RH, 3 months",0.4%
same,% Individual Unspecified Degradant RRT = 3.77,"[2]; 25°C/60% RH, 3 months",0.3%
same,% Total Degradation Products,"[2]; 25°C/60% RH, 3 months",2.9%
same,% Water Content,"[2]; 25°C/60% RH, 3 months",5.40%
same,Assay (label strength of 30 mg/mL),"[2]; 25°C/60% RH, 3 months",96.0%
same,Osmolality,"[2]; 25°C/60% RH, 3 months",322 mmol/kg
same,Degree of Coloration of Liquids,"[2]; 25°C/60% RH, 3 months",BY5
same,% Individual Unspecified Degradant RRT = 0.60,"[2]; 25°C/60% RH, 6 months",0.4%
same,% Individual Unspecified Degradant RRT = 0.64,"[2]; 25°C/60% RH, 6 months",0.4%
same,% Individual Unspecified Degradant RRT = 2.74,"[2]; 25°C/60% RH, 6 months",0.4%
same,% Individual Unspecified Degradant RRT = 3.77,"[2]; 25°C/60% RH, 6 months",0.3%
same,% Total Degradation Products,"[2]; 25°C/60% RH, 6 months",3.0%
same,% Water Content,"[2]; 25°C/60% RH, 6 months",5.65%
same,Assay (label strength of 30 mg/mL),"[2]; 25°C/60% RH, 6 months",96.2%
same,Osmolality,"[2]; 25°C/60% RH, 6 months",319 mmol/kg
same,Degree of Coloration of Liquids,"[2]; 25°C/60% RH, 6 months",BY5
same,% Individual Unspecified Degradant RRT = 0.60,"[2]; 40°C/75% RH, 1 month",0.3%
same,% Individual Unspecified Degradant RRT = 0.64,"[2]; 40°C/75% RH, 1 month",0.4%
same,% Individual Unspecified Degradant RRT = 2.74,"[2]; 40°C/75% RH, 1 month",0.4%
same,% Individual Unspecified Degradant RRT = 3.77,"[2]; 40°C/75% RH, 1 month",0.3%
same,% Total Degradation Products,"[2]; 40°C/75% RH, 1 month",2.9%
same,% Water Content,"[2]; 40°C/75% RH, 1 month",5.03%
same,Assay (label strength of 30 mg/mL),"[2]; 40°C/75% RH, 1 month",95.8%
same,Osmolality,"[2]; 40°C/75% RH, 1 month",330 mmol/kg
same,% Individual Unspecified Degradant RRT = 0.60,"[2]; 40°C/75% RH, 3 months",0.3%
same,% Individual Unspecified Degradant RRT = 0.64,"[2]; 40°C/75% RH, 3 months",0.4%
same,% Individual Unspecified Degradant RRT = 2.74,"[2]; 40°C/75% RH, 3 months",0.5%
same,% Individual Unspecified Degradant RRT = 3.77,"[2]; 40°C/75% RH, 3 months",0.4%
same,% Total Degradation Products,"[2]; 40°C/75% RH, 3 months",3.3%
same,% Water Content,"[2]; 40°C/75% RH, 3 months",5.33%
same,Assay (label strength of 30 mg/mL),"[2]; 40°C/75% RH, 3 months",96.2%
same,Osmolality,"[2]; 40°C/75% RH, 3 months",327 mmol/kg
same,% Individual Unspecified Degradant RRT = 0.60,"[2]; 40°C/75% RH, 6 months",0.4%
same,% Individual Unspecified Degradant RRT = 0.64,"[2]; 40°C/75% RH, 6 months",0.5%
same,% Individual Unspecified Degradant RRT = 2.74,"[2]; 40°C/75% RH, 6 months",0.4%
same,% Individual Unspecified Degradant RRT = 3.77,"[2]; 40°C/75% RH, 6 months",0.3%
same,% Total Degradation Products,"[2]; 40°C/75% RH, 6 months",2.8%
same,% Water Content,"[2]; 40°C/75% RH, 6 months",6.34%
same,Assay (label strength of 30 mg/mL),"[2]; 40°C/75% RH, 6 months",97.1%
same,Osmolality,"[2]; 40°C/75% RH, 6 months",324 mmol/kg
same,retest date supported by the data,[2]; stored at 2-8°C,12 month
